Source: US9707233B2, “Heterocyclylamines as PI3K inhibitors” (Incyte Corporation, priority 2011, dated 2017)

Molecular target: PI3Kδ (p110δ/p85α) (Homo sapiens (Human), UniProt O00329)
Experiment: PI3Kδ scintillation proximity assay (Example A3)
Assay type: biochemical
Settings: 20 μM ATP, 20 μM PIP2, 4 nM PI3Kδ; read-out: PI3Kδ SPA IC50
How it was run: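 Human PI3Kδ (p110δ/p85α, 4 nM) with 20 μM PIP2 and 20 μM ATP plus [γ-33P]ATP in 20 mM MOPS pH 6.7, 10 mM MgCl2, 5 mM DTT, 0.03% CHAPS, 0.5% DMSO, room temperature. Reaction stopped with EDTA/excess ATP; product captured on WGA SPA beads and counted. IC50 from percent control activity vs log inhibitor.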

Chain of PI3Kδ (p110δ/p85α) (O00329 whole entry): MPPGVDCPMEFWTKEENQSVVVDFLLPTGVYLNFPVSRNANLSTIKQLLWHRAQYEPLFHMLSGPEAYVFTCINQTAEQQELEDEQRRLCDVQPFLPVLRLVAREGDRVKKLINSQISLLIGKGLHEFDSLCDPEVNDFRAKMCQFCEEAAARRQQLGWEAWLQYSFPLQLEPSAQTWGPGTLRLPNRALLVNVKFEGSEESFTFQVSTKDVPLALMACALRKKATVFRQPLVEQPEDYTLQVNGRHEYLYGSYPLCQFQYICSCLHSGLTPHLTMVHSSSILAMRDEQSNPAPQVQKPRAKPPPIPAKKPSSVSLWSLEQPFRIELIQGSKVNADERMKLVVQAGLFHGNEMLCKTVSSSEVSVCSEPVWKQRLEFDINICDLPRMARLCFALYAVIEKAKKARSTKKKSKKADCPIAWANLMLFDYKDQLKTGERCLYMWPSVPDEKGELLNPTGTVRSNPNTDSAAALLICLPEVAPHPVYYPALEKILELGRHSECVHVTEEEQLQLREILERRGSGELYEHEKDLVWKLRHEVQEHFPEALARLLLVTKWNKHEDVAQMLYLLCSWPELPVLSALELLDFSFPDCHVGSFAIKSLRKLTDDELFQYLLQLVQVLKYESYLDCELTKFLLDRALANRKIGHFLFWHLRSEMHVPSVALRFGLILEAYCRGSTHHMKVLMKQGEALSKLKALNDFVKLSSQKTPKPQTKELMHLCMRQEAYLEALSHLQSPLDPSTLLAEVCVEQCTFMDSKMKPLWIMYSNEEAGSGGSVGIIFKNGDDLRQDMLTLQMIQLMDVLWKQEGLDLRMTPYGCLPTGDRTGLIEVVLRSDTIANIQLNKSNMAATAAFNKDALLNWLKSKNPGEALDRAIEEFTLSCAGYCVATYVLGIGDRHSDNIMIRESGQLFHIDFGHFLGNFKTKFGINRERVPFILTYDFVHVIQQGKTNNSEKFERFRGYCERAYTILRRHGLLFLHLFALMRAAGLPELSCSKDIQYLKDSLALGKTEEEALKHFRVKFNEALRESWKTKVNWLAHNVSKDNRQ
Chain of PI3Kδ (p110δ/p85α) (P27986 whole entry partner): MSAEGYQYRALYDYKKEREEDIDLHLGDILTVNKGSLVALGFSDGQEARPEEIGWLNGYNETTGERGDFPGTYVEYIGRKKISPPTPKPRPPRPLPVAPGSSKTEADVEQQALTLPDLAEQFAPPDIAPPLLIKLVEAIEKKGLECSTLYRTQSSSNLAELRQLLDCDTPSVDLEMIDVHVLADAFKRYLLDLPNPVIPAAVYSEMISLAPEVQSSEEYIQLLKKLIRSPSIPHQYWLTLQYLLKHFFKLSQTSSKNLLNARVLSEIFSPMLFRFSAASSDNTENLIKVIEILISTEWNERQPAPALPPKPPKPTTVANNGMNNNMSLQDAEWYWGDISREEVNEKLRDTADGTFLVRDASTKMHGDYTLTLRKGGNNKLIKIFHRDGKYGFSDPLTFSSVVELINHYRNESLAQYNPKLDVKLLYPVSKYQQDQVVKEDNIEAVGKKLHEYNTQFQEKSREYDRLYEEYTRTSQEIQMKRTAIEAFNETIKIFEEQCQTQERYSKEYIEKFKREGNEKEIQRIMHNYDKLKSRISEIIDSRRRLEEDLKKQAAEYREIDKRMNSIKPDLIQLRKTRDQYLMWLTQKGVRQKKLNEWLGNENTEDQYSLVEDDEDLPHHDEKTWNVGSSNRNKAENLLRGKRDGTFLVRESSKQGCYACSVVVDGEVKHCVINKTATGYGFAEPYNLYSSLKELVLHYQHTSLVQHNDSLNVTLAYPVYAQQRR

IC50	SMILES
≤ 10 nM	COc1c(C(C)n2nc(C)c3c(N)ncnc32)cc(Cl)c(Cl)c1C1CN(C2COC2)C1 (single isomer, unassigned) [Example 304, 1-{1-[4,5-Dichloro-2-methoxy-3-(1-oxetan-3-ylazetidin-3-yl)phenyl]ethyl}-3-methyl-1H-pyrazolo[3,4-d]pyrimidin-4-amine]
≤ 10 nM	COc1c(C(C)n2nc(C)c3c(N)ncnc32)cc(Cl)c(C)c1-c1cnn(CCO)c1 (single isomer, unassigned) [20 (1st peak), 2-(4-(3-(1-(4-Amino-3-methyl-1H-pyrazolo[3,4-d]pyrimidin-1-yl)ethyl)-5-chloro-2-methoxy-6-methylphenyl)-1H-pyrazol-1-yl)ethanol]
≤ 10 nM	COc1c(C(C)n2nc(C)c3c(N)ncnc32)cc(Cl)c(C#N)c1C1CN(CC2CCOCC2)C1 (single isomer, unassigned) [Example 280, 4-[1-(4-Amino-3-methyl-1H-pyrazolo[3,4-d]pyrimidin-1-yl)ethyl]-6-chloro-3-methoxy-2-[1-(tetrahydro-2H-pyran-4-ylmethyl)azetidin-3-yl]benzonitrile]
> 500 nM	CCOc1c(C(C)n2nc(C)c3c(N)ncnc32)cc(Cl)c(C#N)c1C1CNC(=O)C1 (single isomer, unassigned) [Example 350, 4-[1-(4-amino-3-methyl-1H-pyrazolo[3,4-d]pyrimidin-1-yl)ethyl]-6-chloro-3-ethoxy-2-(5-oxopyrrolidin-3-yl)benzonitrile]
≤ 10 nM	COc1c(C(C)n2nc(C)c3c(N)ncnc32)cc(Cl)c(C)c1-c1cncc(C(=O)N(C)CCO)c1 (single isomer, unassigned) [Example 175, 5-{3-[1-(4-amino-3-methyl-1H-pyrazolo[3,4-d]pyrimidin-1-yl)ethyl]-5-chloro-2-methoxy-6-methylphenyl}-N-(2-hydroxyethyl)-N-methylnicotinamide]
≤ 10 nM	CCOc1c(C(C)n2nc(C(F)F)c3c(N)ncnc32)cc(Cl)c(F)c1C1CN(C(C)C)C1 (racemic) [Example 150, 1-{1-[5-Chloro-2-ethoxy-4-fluoro-3-(1-isopropylazetidin-3-yl)phenyl]ethyl}-3-(difluoromethyl)-1H-pyrazolo[3,4-d]pyrimidin-4-amine]
≤ 10 nM	COc1c(C(C)n2nc(C)c3c(N)ncnc32)cc(Cl)c(C)c1CCC(=O)N(C)C (single isomer, unassigned) [Example 180, 3-(3-(1-(4-Amino-3-methyl-1H-pyrazolo[3,4-d]pyrimidin-1-yl)ethyl)-5-chloro-2-methoxy-6-methylphenyl)-N,N-dimethylpropanamide]
≤ 10 nM	COc1c(C(C)n2nc(C)c3c(N)ncnc32)cc(Cl)c(C)c1C1CN(CC(N)=O)C1 (stereo not drawn) [Example 111, 2-(3-{3-[1-(4-Amino-3-methyl-1H-pyrazolo[3,4-d]pyrimidin-1-yl)ethyl]-5-chloro-2-methoxy-6-methylphenyl}azetidin-1-yl)acetamide]
≤ 10 nM	COc1c(C(C)n2ccc(=O)c3c(N)ncnc32)cc(Cl)c(C)c1-c1cncnc1 (racemic) [Example 29, 4-Amino-8-[1-(5-chloro-2-methoxy-4-methyl-3-pyrimidin-5-ylphenyl)ethyl]pyrido[2,3-d]pyrimidin-5(8H)-one bis(trifluoroacetate)]
≤ 10 nM	COc1c(C(C)n2nc(C)c3c(N)ncnc32)cc(Cl)c(C)c1C1CN(C(=O)C2CC2)C1 (single isomer, unassigned) [Example 119, 1-(1-{5-Chloro-3-[1-(cyclopropylcarbonyl)azetidin-3-yl]-2-methoxy-4-methylphenyl}ethyl)-3-methyl-1H-pyrazolo[3,4-d]pyrimidin-4-amine]
≤ 10 nM	CCOc1c(C(C)n2nc(C)c3c(N)ncnc32)cc(Cl)c(C)c1-c1ccnc(C(=O)N(C)CCO)c1 (single isomer, unassigned) [Example 202, 4-(3-(1-(4-amino-3-methyl-1H-pyrazolo[3,4-d]pyrimidin-1-yl)ethyl)-5-chloro-2-ethoxy-6-methylphenyl)-N-(2-hydroxyethyl)-N-methylpicolinamide]
10 to 50 nM	CCOc1c(C(C)n2nc(C#N)c3c(N)ncnc32)cc(Cl)c(C)c1-c1ccc(C(=O)N(C)C)nc1 (racemic) [Example 54, 5-{3-[1-(4-amino-3-cyano-1H-pyrazolo[3,4-d]pyrimidin-1-yl)ethyl]-5-chloro-2-ethoxy-6-methylphenyl}-N,N-dimethylpyridine-2-carboxamide]
≤ 10 nM	CCOc1c(C(C)n2nc(C)c3c(N)ncnc32)cc(Cl)c(C#N)c1C1CNC(=O)O1 (stereo not drawn) [323 (2nd peak), 4-[1-(4-amino-3-methyl-1H-pyrazolo[3,4-d]pyrimidin-1-yl)ethyl]-6-chloro-3-ethoxy-2-(2-oxo-1,3-oxazolidin-5-yl)benzonitrile]
≤ 10 nM	CCOc1c(C(C)n2nc(-c3cnn(C)c3)c3c(N)ncnc32)cc(Cl)c(C)c1-c1ccc(C(=O)N(C)C)nc1 (racemic) [Example 49, 5-(3-{1-[4-amino-3-(1-methyl-1H-pyrazol-4-yl)-1H-pyrazolo[3,4-d]pyrimidin-1-yl]ethyl}-5-chloro-2-ethoxy-6-methylphenyl)-N,N-dimethylpyridine-2-carboxamide bis(trifluoroacetate)]
≤ 10 nM	COc1c(C(C)n2nc(C)c3c(N)ncnc32)cc(Cl)c(C)c1-c1cncc(C#N)c1 (single isomer, unassigned) [Example 170, 5-(3-(1-(4-amino-3-methyl-1H-pyrazolo[3,4-d]pyrimidin-1-yl)ethyl)-5-chloro-2-methoxy-6-methylphenyl)nicotinonitrile]
50 to 200 nM	CCOc1c(C(C)n2nc(C)c3c(N)ncnc32)cc(Cl)c(C#N)c1C1CNC(=O)O1 (single isomer, unassigned) [323 (3rd peak), 4-[1-(4-amino-3-methyl-1H-pyrazolo[3,4-d]pyrimidin-1-yl)ethyl]-6-chloro-3-ethoxy-2-(2-oxo-1,3-oxazolidin-5-yl)benzonitrile]
≤ 10 nM	CCOc1c(C(C)n2nc(C)c3c(N)ncnc32)cc(C)c(C#N)c1C1CN(CC(C)O)C1 (stereo in doubt) [Example 326, 4-[1-(4-amino-3-methyl-1H-pyrazolo[3,4-d]pyrimidin-1-yl)ethyl]-3-ethoxy-2-{1-[(2S)-2-hydroxypropyl]azetidin-3-yl}-6-methylbenzonitrile]
≤ 10 nM	CCOc1c(C(C)n2nc(C)c3c(N)ncnc32)cc(Cl)c(C#N)c1C1CN(CCO)C1 (single isomer, unassigned) [Example 219, 4-[1-(4-Amino-3-methyl-1H-pyrazolo[3,4-d]pyrimidin-1-yl)ethyl]-6-chloro-3-ethoxy-2-[1-(2-hydroxyethyl)azetidin-3-yl]benzonitrile]
≤ 10 nM	CCS(=O)(=O)N1CC(c2c(C#N)c(Cl)cc(C(C)n3nc(C)c4c(N)ncnc43)c2OC)C1 (single isomer, unassigned) [Example 286, 4-[1-(4-Amino-3-methyl-1H-pyrazolo[3,4-d]pyrimidin-1-yl)ethyl]-6-chloro-2-[1-(ethylsulfonyl)azetidin-3-yl]-3-methoxybenzonitrile]
≤ 10 nM	CCOc1c(C(C)n2nc(C)c3c(N)ncnc32)cc(C)c(C#N)c1-c1ccnc(C(=O)N(C)C)c1 (single isomer, unassigned) [Example 340, 4-{3-[1-(4-amino-3-methyl-1H-pyrazolo[3,4-d]pyrimidin-1-yl)ethyl]-6-cyano-2-ethoxy-5-methylphenyl}-N,N-dimethylpyridine-2-carboxamide]
≤ 10 nM	COc1c(C(C)n2nc(C)c3c(N)ncnc32)cc(Cl)c(Cl)c1C1CN(CC(C)(C)O)C1 (single isomer, unassigned) [Example 303, 1-(3-{3-[1-(4-Amino-3-methyl-1H-pyrazolo[3,4-d]pyrimidin-1-yl)ethyl]-5,6-dichloro-2-methoxyphenyl}azetidin-1-yl)-2-methylpropan-2-ol]
≤ 10 nM	COc1c(C(C)n2nc(C)c3c(N)ncnc32)cc(Cl)c(F)c1C1CN(C[C@H](C)O)C1 (single isomer, unassigned) [68 (1st peak)]
≤ 10 nM	CCOc1c(C(C)n2nc(C)c3c(N)ncnc32)cc(C)c(C#N)c1C1CN(CCO)C1 (single isomer, unassigned) [Example 327, 4-[-1-(4-amino-3-methyl-1H-pyrazolo[3,4-d]pyrimidin-1-yl)ethyl]-3-ethoxy-2-[1-(2-hydroxyethyl)azetidin-3-yl]-6-methylbenzonitrile]
≤ 10 nM	CCOc1c(C(C)n2nc(CO)c3c(N)ncnc32)cc(Cl)c(C)c1-c1ccc(C(=O)N(C)C)nc1 (racemic) [Example 83, 5-(3-{1-[4-Amino-3-(hydroxymethyl)-1H-pyrazolo[3,4-d]pyrimidin-1-yl]ethyl}-5-chloro-2-ethoxy-6-methylphenyl)-N,N-dimethylpyridine-2-carboxamide bis(trifluoroacetate)]
≤ 10 nM	CCOC(=O)N1CC(c2c(C#N)c(Cl)cc(C(C)n3nc(C)c4c(N)ncnc43)c2OCC)C1 (single isomer, unassigned) [Example 253, Ethyl 3-{3-[1-(4-amino-3-methyl-1H-pyrazolo[3,4-d]pyrimidin-1-yl)ethyl]-5-chloro-6-cyano-2-ethoxyphenyl}azetidine-1-carboxylate]

SMILES	IC50
COc1c(C(C)n2ccc(=O)c3c(N)ncnc32)cc(Cl)c(C)c1-c1ccc(C(=O)N(C)C)nc1 (single isomer, unassigned) [25 (1st peak), 5-{3-[1-(4-Amino-5-oxopyrido[2,3-d]pyrimidin-8(5H)-yl)ethyl]-5-chloro-2-methoxy-6-methylphenyl}-N,N-dimethylpyridine-2-carboxamide]	200 to 500 nM
CCOc1c(C(C)n2nc(C)c3c(N)ncnc32)cc(Cl)c(F)c1C1CNC(=O)C1 (single isomer, unassigned) [Example 346, 4-{3-[1-(4-amino-3-methyl-1H-pyrazolo[3,4-d]pyrimidin-1-yl)ethyl]-5-chloro-2-ethoxy-6-fluorophenyl}pyrrolidin-2-one]	≤ 10 nM
